# Measurements from US20080132562A1, “TETRONIC AND TETRAMIC ACIDS” (priority 2003, published 2008).
# pIC50: −log10 of the molar value.
# Target: T1, purified BACE protein (β-secretase) (Homo sapiens, UniProt P56817)
# T1 construct: made in house
# Test: Competitive Radioligand Binding Assay (RLBA)
# Conditions: β-secretase inhibition; displacement of tritiated Compound A tracer from plate-coated BACE, binding buffer pH 4.1; read-out: IC50 in vitro
# Description: Competitive Radioligand Binding Assay (RLBA)
# 96 well microplates (Optiplate Packard) are coated with purified BACE protein (see e.g. GB 2,385,124: Examples 1 and 2) using a concentration of 1 μg/ml in 30 mM sodium citrate buffer adjusted to pH 5.5. The coating is achieved by incubation of 100 μl/well for 1-3 days at 4° C. The plate is then washed with 2×300 μl/well of 10 mM citrate pH 4.1. To each well 100 μl binding buffer (30 mM citrate, 100 mM NaCl, 0.1% BSA, pH 4.1) is dispensed. The test compound is added in 5 μl from a DMSO stock solution or appropriate dilutions. To this the tracer (tritiated Compound A, see e.g. GB 2,385,124: Example 4) is added in 10 μl/well from a 10 μCi/ml stock solution in binding buffer. After incubation for 1.5-2 hours in a humid chamber at ambient temperature the plate is washed with 2×300 μl/well water and flipped on a dry towel. Following the addition of 50 μl/well MicroScint20 (Packard) the plate is sealed and vibrated for 5 seconds. The bound radioactivity is counted on a Topcount (Packard). Total binding is typically between 2000 and 10000 cpm/well depending mainly on the purity and concentration of the BACE protein. Non-specific binding as assessed by competition with >1 μM peptidic inhibitor (Bachem #H-4848) is typically between 30 and 300 cpm/well. The IC-50 values are calculated by Microsoft Excel FIT.
# T1 sequence (P56817 46-501): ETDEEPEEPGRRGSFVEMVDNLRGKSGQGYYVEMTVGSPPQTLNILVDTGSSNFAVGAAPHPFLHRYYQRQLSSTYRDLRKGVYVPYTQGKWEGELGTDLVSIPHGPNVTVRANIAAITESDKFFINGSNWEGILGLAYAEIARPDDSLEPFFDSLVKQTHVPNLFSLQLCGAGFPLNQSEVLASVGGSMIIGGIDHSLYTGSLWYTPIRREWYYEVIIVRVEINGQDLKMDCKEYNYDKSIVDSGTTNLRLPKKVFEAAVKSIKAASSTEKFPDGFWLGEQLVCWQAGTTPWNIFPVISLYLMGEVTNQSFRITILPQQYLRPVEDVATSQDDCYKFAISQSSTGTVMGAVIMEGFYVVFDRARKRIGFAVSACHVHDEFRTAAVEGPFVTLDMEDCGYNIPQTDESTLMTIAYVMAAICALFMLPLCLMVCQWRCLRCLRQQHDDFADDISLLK
row,Structure (SMILES),pIC50
1,"COc1ccc(Cl)cc1C(=O)NCCc1ccc(CC(C)C(=O)C2=C(O)C(CC3CCCCC3)OC2=O)cc1 (stereo not drawn) [Example C12, 5-Chloro-N-(2-{4-[3-(5-cyclohexylmethyl-4-hydroxy-2-oxo-2,5-dihydro-furan-3-yl)-2-methyl-3-oxo-propyl]-phenyl}-ethyl)-2-methoxy-benzamide]",4.92
2,"CC(Cc1ccc(C(C)(C)C)cc1)C(=O)C1=C(O)C(Cc2ccccc2)OC1=O (stereo not drawn) [Example D2, 5-Benzyl-3-[3-(4-tert-butyl-phenyl)-2-methyl-propionyl]-4-hydroxy-5H-furan-2-one]",4.48
3,"O=C(CC(c1ccccc1)c1ccccc1)C1=C(O)C(CCCN2CCOCC2)OC1=O (stereo not drawn) [Example G29, 3-(3,3-Diphenyl-propionyl)-4-hydroxy-5-(3-morpholin-4-yl-propyl)-5H-furan-2-one]",4.07
4,"CC1(CCc2ccccc2)OC(=O)C(C(=O)CC2c3ccccc3-c3ccccc32)=C1O (stereo not drawn) [Example I7, 3-[(9H-Fluoren-9-yl)-acetyl]-4-hydroxy-5-methyl-5-phenethyl-5H-furan-2-one]",4.51
5,"O=C(CC(c1ccccc1)c1ccccc1)C1=C(O)C(CCc2ccccc2)(c2ccccc2)OC1=O (stereo not drawn) [Example J4, 3-(3,3-Diphenyl-propionyl)-4-hydroxy-5-phenethyl-5-phenyl-5H-furan-2-one]",4.39
6,"NC(Cc1ccc(OCc2ccccc2)cc1)C(=O)C1=C(O)C(CCc2ccccc2)NC1=O (stereo not drawn) [Example K38, 3-[2-Amino-3-(4-benzyloxy-phenyl)-propionyl]-4-hydroxy-5-phenethyl-1,5-dihydro-pyrrol-2-one; compound with trifluoro-acetic acid]",4.80
7,"O=C(Cn1c2ccccc2c2ccccc21)C1=C(O)C(CCc2ccccc2)NC1=O (stereo not drawn) [Example K46, 3-(Carbazol-9-yl-acetyl)-4-hydroxy-5-phenethyl-1,5-dihydro-pyrrol-2-one]",4.44

# More lines, now with the values ahead:
row,pIC50,Structure (SMILES)
1,4.24,"O=C(CCCC1CCCCC1)C1=C(O)C(CCc2ccccc2)OC1=O (racemic) [Example E7, Rac-3-(4-cyclohexyl-butyryl)-4-hydroxy-5-phenethyl-5H-furan-2-one]"
2,4.89,"CC(Cc1ccc(OCc2ccccc2)cc1)C(=O)C1=C(O)C(CC2CCCCC2)OC1=O (stereo not drawn) [Example C9, 3-[3-(4-Benzyloxy-phenyl)-2-methyl-propionyl]-5-cyclohexylmethyl-4-hydroxy-5H-furan-2-one]"
3,4.82,"O=C(Cc1cn(Cc2ccc(F)cc2)c2ccccc12)C1=C(O)C(CC2CCCCC2)OC1=O (stereo not drawn) [Example C19, 5-Cyclohexylmethyl-3-{[1-(4-fluoro-benzyl)-1H-indol-3-yl]-acetyl}-4-hydroxy-5H-furan-2-one]"
4,4.96,"O=C(Cn1c2ccccc2c2ccccc21)C1=C(O)C(CC2CCCCC2)OC1=O (stereo not drawn) [Example C33, 3-(Carbazol-9-yl-acetyl)-5-cyclohexylmethyl-4-hydroxy-5H-furan-2-one]"
5,4.85,"O=C(Cc1c[nH]c2ccccc12)C1=C(O)C(CCCc2ccccc2)OC1=O (stereo not drawn) [Example F5, 4-Hydroxy-3-[(H-indol-3-yl)-acetyl]-5-(3-phenyl-propyl)-5H-furan-2-one]"
